Results: patent US20220324897A1, “CRYSTAL FORM OF SGLT INHIBITOR AND APPLICATION THEREOF” (SHANDONG DANHONG PHARMACEUTICAL CO., LTD., priority 2019, published 2022)
One block for each molecule: values may come before it.

How the values were obtained:
[1] = Hygroscopicity study by dynamic vapor sorption (DVS); type: physicochemical; conditions: 25° C. and 80% RH
Procedure: Dynamic Vapor Sorption (DVS) Method of the Present Invention
Instrument Model: […] Advantage-1 dynamic vapor adsorber
Test conditions: Sample (10-30 mg) is placed in the DVS sample tray for testing.
Detailed DVS parameters are as follows:
Balance: dm/dt=0.002%/min (shortest: 10 min, longest: 180 min)
RH (%) test step range: 0-95-0
Hygroscopicity evaluation and classification are as follows:
SMS DVS Advantage Dynamic Vapor Sorption Intrinsic

[2] = Solid stability test of crystal form A; type: physicochemical
Procedure: Each part is placed at the bottom of a HPLC vial and spread into a thin layer. Samples placed in a constant temperature and constant humidity box at 60° C./75% RH and samples placed in a 92.5% RH dryer are sealed with a sealing film on the bottle mouth, and some small holes are made in the sealing film to ensure that the sample can be brought into full contact with the ambient air. Samples placed at 60° C., or under lights or shading conditions are tightly capped (wherein the samples under shading conditions are packaged with a tin foil paper).

SD rats = experiment: Pharmacodynamic study in rats OGTT model; type: in vivo, rat; conditions: for OGTT Blood glucose levels AUC0-2 hr: SD rats, mean ± standard error
Procedure: SD rats, male, aged 7-8 weeks, purchased from Zhejiang Weitonglihua Experimental Animal Technology Co. Ltd. are maintained in a special pathogen-free environment, with 4 rats in a single ventilation cage. Beddings and water in all cages are sterilized prior to use. All animals can freely obtain a standard certified commercial laboratory diet.
After the animals are adapted to the environment for one week, they are fasted for 16 hours in a metabolic cage, and randomly divided into different groups according to fasting blood glucose and body weight. The animals are administered with a drug or solvent (2 mL/kg), followed by immediately administration of 50% glucose solution (2 g/kg, 4 mL/kg), 2 hours after the administration of glucose solution, the feed is recovered, and blood samples are collected at 0 min, 15 min, 30 min, 45 min, 60 min, and 120 min for blood glucose testing. All values are expressed as average values. Statistical analysis is carried out using Graphpad Prism 6 double factor variance analysis and evaluated with Tukey's multiple comparison tests. P values less than 0.05 are considered to have statistical significance.

[3] = Shading lights, test at the same time with the visible lights + ultraviolet lights group
[4] = Shading lights, test at the same time with the visible lights group
[5] = Visible lights + Ultraviolet lights, illuminance reaches 200 W · hrs/m^2
[6] = Visible lights, illuminance reaches 1.2E+06 Lux · hrs

- Hygroscopicity classification [1]: almost no hygroscopicity
- ΔW, weight gain caused by hygroscopicity [1]: 0.1483%
- Crystal form ([2]; 0 day): Crystal form A
- Purity (area %) ([2]; 0 day): 96.48 area %
- Crystal form ([2]; 60° C., 5 days): Crystal form A
- Purity (area %) ([2]; 60° C., 5 days): 96.38 area %
- Crystal form ([2]; 60° C., 10 days): Crystal form A
- Purity (area %) ([2]; 60° C., 10 days): 96.41 area %
- Crystal form ([2]; 60° C./75% RH, 1 months): Crystal form A
- Purity (area %) ([2]; 60° C./75% RH, 1 months): 96.31 area %
- Crystal form ([2]; 60° C./75% RH, 2 months): Crystal form A
- Purity (area %) ([2]; 60° C./75% RH, 2 months): 96.39 area %
- Crystal form ([2]; 60° C./75% RH, 3 months): Crystal form A
- Purity (area %) ([2]; 60° C./75% RH, 3 months): 96.37 area %
- Crystal form ([2]; 92.5% RH, 5 days): Crystal form A
- Purity (area %) ([2]; 92.5% RH, 5 days): 96.41 area %
- Crystal form ([2]; 92.5% RH, 10 days): Crystal form A
- Purity (area %) ([2]; 92.5% RH, 10 days): 96.47 area %
- Crystal form [2, 3]: Crystal form A
- Purity (area %) [2, 3]: 96.43 area %
- Crystal form [2, 4]: Crystal form A
- Purity (area %) [2, 4]: 96.44 area %
- Crystal form [2, 5]: Crystal form A
- Purity (area %) [2, 5]: 95.75 area %
- Crystal form [2, 6]: Crystal form A
- Purity (area %) [2, 6]: 96.29 area %
Compound: CCc1ccc([C@@H]2O[C@H](SC)[C@@H](O)[C@H](O)[C@H]2O)cc1Cc1ccc(C2=CCC(F)(F)CC2)cc1
- Solid stability, conclusion ([2]; all tested conditions of Table 3): Conclusion: The crystal forms A of compound of formula (I) has good stability.
- OGTT Blood glucose levels AUC0-2 hr (SD rats; 1 mg/kg): 1070 mmol/L/min
- OGTT Blood glucose levels AUC0-2 hr (SD rats; 3 mg/kg): 977 mmol/L/min
- OGTT Blood glucose levels AUC0-2 hr (SD rats; 10 mg/kg): 881 mmol/L/min
- Effect on blood glucose level, AUC0-2hr, conclusion (SD rats; rat OGTT, in 2 hours): effectively and significantly reduce the blood glucose level

Compound: CCOc1ccc(Cc2cc([C@@H]3O[C@H](SC)[C@@H](O)[C@H](O)[C@H]3O)ccc2Cl)cc1 [Sotagliflozin, reference compound]
- OGTT Blood glucose levels AUC0-2 hr (SD rats; 3 mg/kg): 1050 mmol/L/min
